{"source": "paper PMC10257182", "about": "“Discovery of senolytics using machine learning” (Nature Communications, 2023)", "assay_type_in_all_cases": "cell-based, human", "key": {"[1]": {"test_system": "senescent A549 cells (etoposide-induced)", "assay": "Nuclei count senolytic assay, therapy-induced senescence (TIS) model, senescent cells", "conditions": "Homo sapiens, A549, Senescent cells, mean, read-out: Mean % Cell Survival", "method_in_brief": "(§1)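 Senescence in A549 cells is induced by 48 h of 100 μM etoposide followed by three days without drug, alongside non-senescent controls. Cells are seeded, rested 24 h, then exposed 72 h to compounds (10 nM–10 μM final, […] steps, triplicate) before nuclei are counted by imaging.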"}, "[2]": {"test_system": "non-senescent control IMR90 ER:RAS cells", "assay": "Nuclei count (Hoechst, high content imaging) senolytic assay, OIS model, non-senescent control cells", "conditions": "Homo sapiens", "method_in_brief": "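Cells seeded, left 24 h, then dosed across a 10-point […] series (10 μM down to 10 nM) with DMSO control. After 72 h, wells were fixed, permeabilised and stained with Hoechst. Nuclei were counted by high-content imaging in senescent and non-senescent IMR90 ER:RAS cultures.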"}, "[3]": {"test_system": "non-senescent control A549 cells", "assay": "Nuclei count senolytic assay, TIS model, non-senescent control cells", "conditions": "Homo sapiens, A549, Control cells, mean, read-out: Mean % Cell Survival", "method_in_brief": "as §1"}}, "note": "Read-outs that look alike come from different tables or passages of the source.", "data": [{"smiles": "Cc1cnc(C(=O)N[C@H]2CCCCC/C=C\\[C@@H]3C[C@@]3(C(=O)NS(=O)(=O)C3CC3)NC(=O)[C@@H]3C[C@@H](Oc4nc5ccccc5c5ccccc45)CN3C2=O)cn1", "note": "[Paritaprevir, paritaprevir, reference compound]", "values": [{"measurement": "viability at 10 µM", "setting": "[1]; log (dose) [M] -5", "result": 113, "unit": "%"}, {"measurement": "viability at 4.68 µM", "setting": "[1]; log (dose) [M] -5.33", "result": 107, "unit": "%"}, {"measurement": "viability at 2.19 µM", "setting": "[1]; log (dose) [M] -5.66", "result": 112, "unit": "%"}, {"measurement": "viability at 1 µM", "setting": "[1]; log (dose) [M] -6", "result": 108, "unit": "%"}, {"measurement": "viability at 0.468 µM", "setting": "[1]; log (dose) [M] -6.33", "result": 112, "unit": "%"}, {"measurement": "viability at 0.219 µM", "setting": "[1]; log (dose) [M] -6.66", "result": 104, "unit": "%"}, {"measurement": "viability at 0.1 µM", "setting": "[1]; log (dose) [M] -7", "result": 112, "unit": "%"}, {"measurement": "viability at 0.0468 µM", "setting": "[1]; log (dose) [M] -7.33", "result": 115, "unit": "%"}, {"measurement": "viability at 0.0219 µM", "setting": "[1]; log (dose) [M] -7.66", "result": 103, "unit": "%"}, {"measurement": "viability at 0.01 µM", "setting": "[1]; log (dose) [M] -8", "result": 103, "unit": "%"}, {"measurement": "viability at 10 µM", "setting": "[2]; IMR-90, 72 h, Control, log (dose) [M] -5, 72 h, mean n=3 (Fig 3C), read-out: Mean % Cell Survival", "result": 95, "unit": "%"}, {"measurement": "viability at 4.677 µM", "setting": "[2]; IMR-90, 72 h, Control, log (dose) [M] -5.33, 72 h, mean n=3 (Fig 3C), read-out: Mean % Cell Survival", "result": 90.1, "unit": "%"}, {"measurement": "viability at 2.188 µM", "setting": "[2]; IMR-90, 72 h, Control, log (dose) [M] -5.66, 72 h, mean n=3 (Fig 3C), read-out: Mean % Cell Survival", "result": 102, "unit": "%"}, {"measurement": "viability at 1 µM", "setting": "[2]; IMR-90, 72 h, Control, log (dose) [M] -6, 72 h, mean n=3 (Fig 3C), read-out: Mean % Cell Survival", "result": 78.8, "unit": "%"}, {"measurement": "viability at 0.4677 µM", "setting": "[2]; IMR-90, 72 h, Control, log (dose) [M] -6.33, 72 h, mean n=3 (Fig 3C), read-out: Mean % Cell Survival", "result": 87.9, "unit": "%"}, {"measurement": "viability at 0.2188 µM", "setting": "[2]; IMR-90, 72 h, Control, log (dose) [M] -6.66, 72 h, mean n=3 (Fig 3C), read-out: Mean % Cell Survival", "result": 82.7, "unit": "%"}, {"measurement": "viability at 0.1 µM", "setting": "[2]; IMR-90, 72 h, Control, log (dose) [M] -7, 72 h, mean n=3 (Fig 3C), read-out: Mean % Cell Survival", "result": 81.5, "unit": "%"}, {"measurement": "viability at 0.04677 µM", "setting": "[2]; IMR-90, 72 h, Control, log (dose) [M] -7.33, 72 h, mean n=3 (Fig 3C), read-out: Mean % Cell Survival", "result": 87.1, "unit": "%"}, {"measurement": "viability at 0.02188 µM", "setting": "[2]; IMR-90, 72 h, Control, log (dose) [M] -7.66, 72 h, mean n=3 (Fig 3C), read-out: Mean % Cell Survival", "result": 88.3, "unit": "%"}, {"measurement": "viability at 0.01 µM", "setting": "[2]; IMR-90, 72 h, Control, log (dose) [M] -8, 72 h, mean n=3 (Fig 3C), read-out: Mean % Cell Survival", "result": 101, "unit": "%"}, {"measurement": "viability at 10 µM", "setting": "[2]; IMR-90, Control cells, log (dose) [M] -5, individual replicates, SUP FIG 4C, read-out: % Cell Survival", "result": 93.1, "unit": "%"}, {"measurement": "viability at 4.677 µM", "setting": "[2]; IMR-90, Control cells, log (dose) [M] -5.33, individual replicates, SUP FIG 4C, read-out: % Cell Survival", "result": 86.6, "unit": "%"}, {"measurement": "viability at 0.4677 µM", "setting": "[2]; IMR-90, Control cells, log (dose) [M] -6.33, individual replicates, SUP FIG 4C, read-out: % Cell Survival", "result": 89.5, "unit": "%"}, {"measurement": "viability at 0.2188 µM", "setting": "[2]; IMR-90, Control cells, log (dose) [M] -6.66, individual replicates, SUP FIG 4C, read-out: % Cell Survival", "result": 83.1, "unit": "%"}, {"measurement": "viability at 0.1 µM", "setting": "[2]; IMR-90, Control cells, log (dose) [M] -7, individual replicates, SUP FIG 4C, read-out: % Cell Survival", "result": 73.5, "unit": "%"}, {"measurement": "viability at 0.04677 µM", "setting": "[2]; IMR-90, Control cells, log (dose) [M] -7.33, individual replicates, SUP FIG 4C, read-out: % Cell Survival", "result": 83, "unit": "%"}, {"measurement": "viability at 0.02188 µM", "setting": "[2]; IMR-90, Control cells, log (dose) [M] -7.66, individual replicates, SUP FIG 4C, read-out: % Cell Survival", "result": 88, "unit": "%"}, {"measurement": "viability at 0.01 µM", "setting": "[2]; IMR-90, Control cells, log (dose) [M] -8, individual replicates, SUP FIG 4C, read-out: % Cell Survival", "result": 102, "unit": "%"}, {"measurement": "viability at 10 µM", "setting": "[2]; IMR-90, Control, log (dose) [M] -5, read-out: % Cell Survival", "result": 96, "unit": "%"}, {"measurement": "viability at 4.68 µM", "setting": "[2]; IMR-90, Control, log (dose) [M] -5.33, read-out: % Cell Survival", "result": 96.2, "unit": "%"}, {"measurement": "viability at 2.19 µM", "setting": "[2]; IMR-90, Control, log (dose) [M] -5.66, read-out: % Cell Survival", "result": 99.1, "unit": "%"}, {"measurement": "viability at 1 µM", "setting": "[2]; IMR-90, Control, log (dose) [M] -6, read-out: % Cell Survival", "result": 96.6, "unit": "%"}, {"measurement": "viability at 0.468 µM", "setting": "[2]; IMR-90, Control, log (dose) [M] -6.33, read-out: % Cell Survival", "result": 97.8, "unit": "%"}, {"measurement": "viability at 0.219 µM", "setting": "[2]; IMR-90, Control, log (dose) [M] -6.66, read-out: % Cell Survival", "result": 99.6, "unit": "%"}, {"measurement": "viability at 0.1 µM", "setting": "[2]; IMR-90, Control, log (dose) [M] -7, read-out: % Cell Survival", "result": 94.1, "unit": "%"}, {"measurement": "viability at 0.04677 µM", "setting": "[2]; IMR-90, Control, log (dose) [M] -7.33, read-out: % Cell Survival", "result": 94.2, "unit": "%"}, {"measurement": "viability at 0.0219 µM", "setting": "[2]; IMR-90, Control, log (dose) [M] -7.66, read-out: % Cell Survival", "result": 97, "unit": "%"}, {"measurement": "viability at 0.01 µM", "setting": "[2]; IMR-90, Control, log (dose) [M] -8, read-out: % Cell Survival", "result": 101, "unit": "%"}, {"measurement": "viability at 10 µM", "setting": "[3]; log (dose) [M] -5", "result": 96.8, "unit": "%"}, {"measurement": "viability at 4.68 µM", "setting": "[3]; log (dose) [M] -5.33", "result": 93, "unit": "%"}, {"measurement": "viability at 2.19 µM", "setting": "[3]; log (dose) [M] -5.66", "result": 96, "unit": "%"}, {"measurement": "viability at 1 µM", "setting": "[3]; log (dose) [M] -6", "result": 95.4, "unit": "%"}, {"measurement": "viability at 0.468 µM", "setting": "[3]; log (dose) [M] -6.33", "result": 98.6, "unit": "%"}, {"measurement": "viability at 0.219 µM", "setting": "[3]; log (dose) [M] -6.66", "result": 97.7, "unit": "%"}, {"measurement": "viability at 0.1 µM", "setting": "[3]; log (dose) [M] -7", "result": 95.4, "unit": "%"}, {"measurement": "viability at 0.0468 µM", "setting": "[3]; log (dose) [M] -7.33", "result": 95.7, "unit": "%"}, {"measurement": "viability at 0.0219 µM", "setting": "[3]; log (dose) [M] -7.66", "result": 95.5, "unit": "%"}, {"measurement": "viability at 0.01 µM", "setting": "[3]; log (dose) [M] -8", "result": 101, "unit": "%"}]}]}
